Assay results from PubChem BioAssay AID2060889 (Molecular Pharmacology Branch, DTP, NCI, 2025).

System: LG0567-F671-PDC complex spheroids viability
Experiment: Anticancer human tumor LG0567-F671-PDC patient-derived lung adenocarcinoma cell line growth inhibition [RAS]
Details: for IC50: curve of first compound; for viability, T/C: stronger effect = lower value
Method in brief: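 Tumour cells grown as complex spheroids with HUVEC endothelial cells and mesenchymal stem cells, treated with RAS pathway inhibitor combinations. Each agent spans half-log steps from near clinical Cmax, or 10 microM where Cmax is unknown.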

[1] = second compound 0.000949 µM, first compound 0.00316 µM
[2] = second compound 0.000949 µM, first compound 0.01 µM
[3] = second compound 0.000949 µM, first compound 0.0316 µM
[4] = second compound 0.000949 µM, first compound 0.1 µM
[5] = second compound 0.003 µM, first compound 0.00316 µM
[6] = second compound 0.003 µM, first compound 0.01 µM
[7] = second compound 0.003 µM, first compound 0.0316 µM
[8] = second compound 0.003 µM, first compound 0.1 µM
[9] = second compound 0.00949 µM, first compound 0.00316 µM
[10] = second compound 0.00949 µM, first compound 0.01 µM
[11] = second compound 0.00949 µM, first compound 0.0316 µM
[12] = second compound 0.00949 µM, first compound 0.1 µM
[13] = second compound 0.03 µM, first compound 0.00316 µM
[14] = second compound 0.03 µM, first compound 0.01 µM
[15] = second compound 0.03 µM, first compound 0.0316 µM
[16] = second compound 0.03 µM, first compound 0.1 µM
[17] = second compound 0.0949 µM, first compound 0.00316 µM
[18] = second compound 0.0949 µM, first compound 0.01 µM
[19] = second compound 0.0949 µM, first compound 0.0316 µM
[20] = second compound 0.0949 µM, first compound 0.1 µM
[21] = second compound 0.3 µM, first compound 0.00316 µM
[22] = second compound 0.3 µM, first compound 0.01 µM
[23] = second compound 0.3 µM, first compound 0.0316 µM
[24] = second compound 0.3 µM, first compound 0.1 µM
[25] = second compound 0.000949 µM, first compound 0.316 µM
[26] = second compound 0.000949 µM, first compound 1 µM
[27] = second compound 0.000949 µM, first compound 3.16 µM
[28] = second compound 0.000949 µM, first compound 10 µM
[29] = second compound 0.003 µM, first compound 0.316 µM
[30] = second compound 0.003 µM, first compound 1 µM
[31] = second compound 0.003 µM, first compound 3.16 µM
[32] = second compound 0.003 µM, first compound 10 µM
[33] = second compound 0.00949 µM, first compound 0.316 µM
[34] = second compound 0.00949 µM, first compound 1 µM
[35] = second compound 0.00949 µM, first compound 3.16 µM
[36] = second compound 0.00949 µM, first compound 10 µM
[37] = second compound 0.03 µM, first compound 0.316 µM
[38] = second compound 0.03 µM, first compound 1 µM
[39] = second compound 0.03 µM, first compound 3.16 µM
[40] = second compound 0.03 µM, first compound 10 µM
[41] = second compound 0.0949 µM, first compound 0.316 µM
[42] = second compound 0.0949 µM, first compound 1 µM
[43] = second compound 0.0949 µM, first compound 3.16 µM
[44] = second compound 0.0949 µM, first compound 10 µM
[45] = second compound 0.3 µM, first compound 0.316 µM
[46] = second compound 0.3 µM, first compound 1 µM
[47] = second compound 0.3 µM, first compound 3.16 µM
[48] = second compound 0.3 µM, first compound 10 µM
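Further: spheroids exposed to compound for seven days before readout.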
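Wherever IC50 is given: luminescence signal used as a proxy for viable cells.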

Work on CC(C)n1nc(-c2ccc3oc(N)nc3c2)c2c(N)ncnc21 + CCn1c(-c2cc(N3CCN(C)CC3)cnc2C(C)OC)c2c3cc(ccc31)-c1csc(n1)CC(NC(=O)C1CC1C)C(=O)N1CCCC(N1)C(=O)OCC(C)(C)C2 yielded an IC50 (second compound 0.000949 µM) of under 0.316 nM, an IC50 (second compound 0.003 µM) of under 0.316 nM and an IC50 (second compound 0.00949 µM) of under 0.316 nM. The IC50 (second compound 0.03 µM) was under 0.316 nM, the IC50 (second compound 0.0949 µM) was under 0.316 nM and the IC50 (second compound 0.3 µM) was under 0.316 nM. The viability, T/C (second compound 0.000949 µM, first compound 0.000316 µM) was 24.8%, the viability, T/C (second compound 0.000949 µM, first compound 0.001 µM) was 23.1% and the viability, T/C [1] was 18.8%. For the same compound, the viability, T/C [2] was 15.1%, the viability, T/C [3] was 11.8% and the viability, T/C [4] was 7.87%. For the same compound, the viability, T/C (second compound 0.003 µM, first compound 0.000316 µM) was 12.8%, the viability, T/C (second compound 0.003 µM, first compound 0.001 µM) was 11.2% and the viability, T/C [5] was 8.44%. For the same compound, the viability, T/C [6] was 6.54%, the viability, T/C [7] was 4.49% and the viability, T/C [8] was 3.31%. For the same compound, the viability, T/C (second compound 0.00949 µM, first compound 0.000316 µM) was 5.79%, the viability, T/C (second compound 0.00949 µM, first compound 0.001 µM) was 5.54% and the viability, T/C [9] was 4.34%. The viability, T/C [10] was 5.27%, the viability, T/C [11] was 2.11% and the viability, T/C [12] was 1.59%. It also gave a viability, T/C (second compound 0.03 µM, first compound 0.000316 µM) of 3.45%, a viability, T/C (second compound 0.03 µM, first compound 0.001 µM) of 3.53% and a viability, T/C [13] of 2.88%. It also gave a viability, T/C [14] of 2%, a viability, T/C [15] of 1.3% and a viability, T/C [16] of 1.03%. The viability, T/C (second compound 0.0949 µM, first compound 0.000316 µM) was 3.67%, the viability, T/C (second compound 0.0949 µM, first compound 0.001 µM) was 2.67% and the viability, T/C [17] was 2.18%. For the same compound, the viability, T/C [18] was 1.68%, the viability, T/C [19] was 1.09% and the viability, T/C [20] was 0.8%. It also gave a viability, T/C (second compound 0.3 µM, first compound 0.000316 µM) of 2.77%, a viability, T/C (second compound 0.3 µM, first compound 0.001 µM) of 2.43% and a viability, T/C [21] of 1.81%. The viability, T/C [22] was 1.5%, the viability, T/C [23] was 1.12% and the viability, T/C [24] was 0.62%.
Work on CC1(O)CCCC1n1c(=O)c(C(F)F)cc2cnc(NC3CCN(S(C)(=O)=O)CC3)nc21 (stereo not drawn) + CCn1c(-c2cc(N3CCN(C)CC3)cnc2C(C)OC)c2c3cc(ccc31)-c1csc(n1)CC(NC(=O)C1CC1C)C(=O)N1CCCC(N1)C(=O)OCC(C)(C)C2 yielded an IC50 (second compound 0.000949 µM) of under 31.6 nM, an IC50 (second compound 0.003 µM) of under 31.6 nM and an IC50 (second compound 0.00949 µM) of under 31.6 nM. For the same compound, the IC50 (second compound 0.03 µM) was under 31.6 nM, the IC50 (second compound 0.0949 µM) was under 31.6 nM and the IC50 (second compound 0.3 µM) was under 31.6 nM. It also gave a viability, T/C [3] of 29.6%, a viability, T/C [4] of 27.7% and a viability, T/C [25] of 34.2%. For the same compound, the viability, T/C [26] was 35.2%, the viability, T/C [27] was 36.3% and the viability, T/C [28] was 24.7%. The viability, T/C [7] was 11.8%, the viability, T/C [8] was 15.6% and the viability, T/C [29] was 16.7%. It also gave a viability, T/C [30] of 17.6%, a viability, T/C [31] of 18.6% and a viability, T/C [32] of 14.1%. For the same compound, the viability, T/C [11] was 7.99%, the viability, T/C [12] was 8.49% and the viability, T/C [33] was 10.3%. The viability, T/C [34] was 10.8%, the viability, T/C [35] was 11.8% and the viability, T/C [36] was 8.83%. The viability, T/C [15] was 4.53%, the viability, T/C [16] was 5.49% and the viability, T/C [37] was 6.91%. The viability, T/C [38] was 7.53%, the viability, T/C [39] was 8.07% and the viability, T/C [40] was 5.96%. The viability, T/C [19] was 4.61%, the viability, T/C [20] was 4.51% and the viability, T/C [41] was 5.52%. It also gave a viability, T/C [42] of 6.15%, a viability, T/C [43] of 6.66% and a viability, T/C [44] of 5%. For the same compound, the viability, T/C [23] was 3.25%, the viability, T/C [24] was 3.76% and the viability, T/C [45] was 4.31%. The viability, T/C [46] was 5.52%, the viability, T/C [47] was 5.43% and the viability, T/C [48] was 4.68%.
Work on CCN1CCN(Cc2ccc(Nc3ncc(F)c(-c4cc(F)c5nc(C)n(C(C)C)c5c4)n3)nc2)CC1 + CCn1c(-c2cc(N3CCN(C)CC3)cnc2C(C)OC)c2c3cc(ccc31)-c1csc(n1)CC(NC(=O)C1CC1C)C(=O)N1CCCC(N1)C(=O)OCC(C)(C)C2 yielded an IC50 (second compound 0.000949 µM) of under 3.16 nM, an IC50 (second compound 0.003 µM) of under 3.16 nM and an IC50 (second compound 0.00949 µM) of under 3.16 nM. The IC50 (second compound 0.03 µM) was under 3.16 nM, the IC50 (second compound 0.0949 µM) was under 3.16 nM and the IC50 (second compound 0.3 µM) was under 3.16 nM. For the same compound, the viability, T/C [1] was 27.4%, the viability, T/C [2] was 24.3% and the viability, T/C [3] was 23.6%. It also gave a viability, T/C [4] of 23.9%, a viability, T/C [25] of 27.4% and a viability, T/C [26] of 30.4%. It also gave a viability, T/C [5] of 11.5%, a viability, T/C [6] of 11.9% and a viability, T/C [7] of 10.8%. For the same compound, the viability, T/C [8] was 11.4%, the viability, T/C [29] was 14.7% and the viability, T/C [30] was 21.5%. For the same compound, the viability, T/C [9] was 6.37%, the viability, T/C [10] was 6.88% and the viability, T/C [11] was 6.24%. For the same compound, the viability, T/C [12] was 6.47%, the viability, T/C [33] was 7.63% and the viability, T/C [34] was 14.4%. The viability, T/C [13] was 4.36%, the viability, T/C [14] was 4.91% and the viability, T/C [15] was 4.15%. For the same compound, the viability, T/C [16] was 4.09%, the viability, T/C [37] was 5.04% and the viability, T/C [38] was 8.84%. For the same compound, the viability, T/C [17] was 3.5%, the viability, T/C [18] was 3.29% and the viability, T/C [19] was 2.92%. For the same compound, the viability, T/C [20] was 2.88%, the viability, T/C [41] was 3.8% and the viability, T/C [42] was 6%. The viability, T/C [21] was 3.07%, the viability, T/C [22] was 2.94% and the viability, T/C [23] was 2.53%. The viability, T/C [24] was 2.95%, the viability, T/C [45] was 3.25% and the viability, T/C [46] was 4.38%.
Compound C[C@@H](NC(=O)c1ncnc(N)c1Cl)c1ncc(C(=O)Nc2cc(C(F)(F)F)c(Cl)cn2)s1 + CCn1c(-c2cc(N3CCN(C)CC3)cnc2C(C)OC)c2c3cc(ccc31)-c1csc(n1)CC(NC(=O)C1CC1C)C(=O)N1CCCC(N1)C(=O)OCC(C)(C)C2 has an IC50 (second compound 0.000949 µM) of under 31.6 nM, an IC50 (second compound 0.003 µM) of under 31.6 nM and an IC50 (second compound 0.00949 µM) of under 31.6 nM. For the same compound, the IC50 (second compound 0.03 µM) was under 31.6 nM, the IC50 (second compound 0.0949 µM) was under 31.6 nM and the IC50 (second compound 0.3 µM) was under 31.6 nM. For the same compound, the viability, T/C [3] was 30.9%, the viability, T/C [4] was 37.5% and the viability, T/C [25] was 43.4%. The viability, T/C [26] was 39.1%, the viability, T/C [27] was 40.3% and the viability, T/C [28] was 35.3%. It also gave a viability, T/C [7] of 19.7%, a viability, T/C [8] of 18.3% and a viability, T/C [29] of 19.9%. For the same compound, the viability, T/C [30] was 22.7%, the viability, T/C [31] was 24.5% and the viability, T/C [32] was 26.4%. It also gave a viability, T/C [11] of 7.34%, a viability, T/C [12] of 8.73% and a viability, T/C [33] of 10.4%. The viability, T/C [34] was 11.1%, the viability, T/C [35] was 13.5% and the viability, T/C [36] was 12.6%. For the same compound, the viability, T/C [15] was 5.32%, the viability, T/C [16] was 5.26% and the viability, T/C [37] was 5.82%. The viability, T/C [38] was 8.15%, the viability, T/C [39] was 8.79% and the viability, T/C [40] was 9.05%. For the same compound, the viability, T/C [19] was 4.43%, the viability, T/C [20] was 3.63% and the viability, T/C [41] was 3.94%. It also gave a viability, T/C [42] of 5.56%, a viability, T/C [43] of 5.9% and a viability, T/C [44] of 7.14%. For the same compound, the viability, T/C [23] was 3.16%, the viability, T/C [24] was 4.04% and the viability, T/C [45] was 3.86%. It also gave a viability, T/C [46] of 4.35%, a viability, T/C [47] of 5.96% and a viability, T/C [48] of 5.33%.
